# Assays:
# Format in all cases: binding
# human STING (HAQ) = human STING (HAQ) (Homo sapiens, UniProt Q86WV6, G230A/H232R/R293Q); assay: Differential scanning fluorimetry (DSF), huSTING (HAQ); details: 2 μM protein, compound 100 μM; Tm with ligand minus Tm of protein alone (1% DMSO); read-out: DSF huSTING (HAQ) ΔTm (° C.)
# Method: (§1) Biophysical experiments were performed with three different recombinant human STING protein variants designated according to allelic nomenclature of Yi et al., (2013). […] These were ligated into a modified pET43a E. coli expression vector designed to encode N-terminal His tag followed by tobacco etch virus protease (TEV) cleavage site and a STING gene sequence. The resulting protein sequences for the three allelic variants are listed below: […] Cultures were then cooled to 16° C. and protein expression induced by the addition of isopropyl β-D-1-thiogalactopyranoside to a final concentration of 0.5 mM and the cultures shaken overnight for further 16 hours. Following expression, cell cultures were centrifuged at 5000×g for 20 min and cell pellet stored frozen at −70° C. Protein purification was initiated by thawing the cell pellet in Lysis buffer (25 mM Tris-HCl pH 8.0, 300 mM NaCl, 5 mM DTT, 2 mM MgCl2, 10 mM imidazole, 0.5 mg/ml lysozyme, benzonase endonuclease [EMD Millipore], 1 mM PMSF, complete protease inhibitor tablets EDTA-free [Roche]) using a ratio of 7 ml of buffer per 1 g of cells. Cells were further lysed by 3 passes through an ice cooled Avestin C5 cell crusher and then centrifuged at 48,000×g at 4° C. […] The IMAC column was then sequentially washed with IMAC Wash buffer 1 and IMAC Wash buffer 2 (25 mM Tris-HCl pH 8.0, 300 mM NaCl, 5 mM DTT, 20 mM Imidazole) and bound His-TEV-hSTING protein eluted with IMAC Elution buffer (25 mM Tris-HCl pH 8.0, 300 mM NaCl, 5 mM DTT, 250 mM Imidazole). […] Differential scanning fluorimetry (DSF) is a rapid screening method for identifying low-molecular-weight ligands that bind and, in doing so, stabilize (or sometimes destabilize) purified proteins (Niesen 2007). DSF monitors thermal unfolding of protein in the presence of a fluorescent dye and is typically performed using a real-time PCR instrument. The temperature at which a protein unfolds is measured by an increase in the fluorescence of a dye with affinity for hydrophobic parts of the protein that are gradually being exposed during unfolding. The fluorescence of the dye is quenched in aqueous environments, but when the dye associates with hydrophobic sites on unfolded protein, its fluorescence increases. The fluorescence intensity is plotted as a function of the temperature, generating a sigmoidal curve that can be described by a two-state transition. The inflection point of the transition curve (Tm) is calculated using simple equations such as that of Boltzmann. Thermal stability of STING protein (with and without bound ligand) was measured using previously described methodology (Seabrook & Newman, 2013), with samples tested in triplicate using 96-well PCR microplate (AB Gene, ABGAB-0600/W). […] Sealed plates were placed into Bio-Rad CFX96/C1000 thermocycler and FRET scanning mode (λ^excitation of 490 nm and reads at a λ^emission of 570 nm). Melting curves were recorded from 20° C. to 100° C. in 0.5° C. increments every 30 seconds with a read at each increment. Data were analysed using “Meltdown analysis” protocol described by Rosa (2015).
# human STING (WT) [1] = target: T1, human STING (WT) (Homo sapiens (Human), UniProt Q86WV6, H232R); assay: Differential scanning fluorimetry (DSF), huSTING (WT); details: 2 μM protein, compound 100 μM, Tm with ligand minus Tm of protein alone (1% DMSO); for ΔTm at 100 µM: read-out: DSF huSTING (WT) ΔTm (° C.)
# T1 sequence (Q86WV6 other isoform, or with tags, fused parts or gaps, stated change not applied): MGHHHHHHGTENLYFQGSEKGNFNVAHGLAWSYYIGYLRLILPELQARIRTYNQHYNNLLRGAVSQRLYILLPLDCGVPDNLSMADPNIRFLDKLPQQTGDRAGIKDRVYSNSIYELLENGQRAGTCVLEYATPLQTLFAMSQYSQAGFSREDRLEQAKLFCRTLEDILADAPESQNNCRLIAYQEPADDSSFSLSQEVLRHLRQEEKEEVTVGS
# Method: as §1
# human STING (WT) [2] = target: T1, human STING (WT); assay: Surface plasmon resonance (SPR), STING (WT); details: biotinylated STING on streptavidin chip, 8° C.
# Method: Biophysical experiments were performed with three different recombinant human STING protein variants designated according to allelic nomenclature of Yi et al., (2013). Codon optimized DNA sequences (for expression in Escherichia coli) encoding amino acid residues 149 to 345 (Swiss Prot Q86WV6) of human STING (WT), human STING (HAQ) and human STING (R232H) were synthesised by GenScript USA Inc (Piscataway, New Jersey, USA). These were ligated into a modified pET43a E. coli expression vector designed to encode N-terminal His tag followed by tobacco etch virus protease (TEV) cleavage site and a STING gene sequence. The resulting protein sequences for the three allelic variants are listed below:
# Binding interactions of ligands with STING proteins were quantified using Surface Plasmon Resonance (SPR) with a minimally biotinylated STING protein immobilized on a streptavidin chip surface. […] Minimal biotinylation of purified huSTING proteins was performed using a previously described methodology (Chhabra 2012). Briefly, approximately 20 nmol of recombinant STING protein in 1×TBS buffer (25 mM Tris-HCl, pH 7.5, 150 mM NaCl, 5 mM DTT) was mixed with of EZ-Link™ Sulfo-NHS-LC-LC-Biotin (Thermofisher Scientific, cat #21338) at a molar ratio of 1 to 0.6 and incubated on ice for 2 hours. To remove any unreacted biotin reagent, protein/biotin mixture was passed through a Superdex 75 (10/300 GL) column equilibrated with 10 mM HEPES, pH7.4, 150 mM NaCl, 5 mM DTT, 5%[v/v] glycerol. A protein peak containing biotinylated huSTING protein was collected and stored in aliquots at −80° C.
# Streptavidin was simultaneously immobilized in all four channels of a CM5 sensor chip docked in a Biacore instrument (either Biacore S200 or Biacore T200, GE Healthcare) as described previously (Zender 2013). Minimally biotinylated STING protein was captured onto a streptavidin coated chip surface at 8° C. in SPR binding buffer (50 mM HEPES, pH 7.4, 150 mM NaCl, 2%[v/v] DMSO) by gradually injecting in a single channel at a constant flow-rate of 2 μL/min until desired capture level was achieved, typically 3000 to 7000 RU (1 RU=1 pg/mm^2).
# All binding experiments were performed at 8° C. in SPR binding buffer. To determine binding affinity, compound interaction with immobilized STING protein was analysed using dose-response experiments. Fresh 10 mM DMSO solutions of compound were diluted directly into SPR binding buffer typically to a concentration of 50 μM and then further diluted 2-fold or 3-fold aiming for either a 5- or 7-point concentration series range. Each ligand concentration series was injected at a constant flow rate of 60 μL/min with a 90 second association and a 180 second dissociation time. These were modified for compounds with longer residence times, so that curves could reach steady-state, or so that compound would be fully dissociated before the subsequent injection.
# Scrubber 2 (www.biologic.com.au) was utilized for data processing, where signals were referenced against the blank surface (streptavidin+D-biotin) and further corrected for DMSO refractive index change and then “double-referenced” using a buffer-blank injection (Papalia 2006). Responses were fitted to either a 1:1 steady-state affinity model or a 1:1 kinetic model (that included a mass-transport component), available within Scrubber.
# human STING (HAQ), sequence (Q86WV6 whole entry G230A/H232R/R293Q, looked up): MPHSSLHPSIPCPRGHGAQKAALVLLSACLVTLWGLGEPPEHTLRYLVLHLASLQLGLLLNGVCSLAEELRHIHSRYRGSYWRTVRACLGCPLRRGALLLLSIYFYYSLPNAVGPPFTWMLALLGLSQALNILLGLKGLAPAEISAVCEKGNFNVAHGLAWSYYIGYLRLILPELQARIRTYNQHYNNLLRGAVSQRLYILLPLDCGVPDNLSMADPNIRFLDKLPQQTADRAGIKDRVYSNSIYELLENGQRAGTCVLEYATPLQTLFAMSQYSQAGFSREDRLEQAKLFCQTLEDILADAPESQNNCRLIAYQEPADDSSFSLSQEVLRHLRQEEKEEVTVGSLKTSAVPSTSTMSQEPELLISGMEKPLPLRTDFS
ΔTm at 100 µM (human STING (HAQ)) [°C],ΔTm at 100 µM (human STING (WT) [1]) [°C],Kd (human STING (WT) [2]) [µM],DSF huSTING (WT) ΔTm (° C.) (human STING (WT) [1]) [°C],Structure (SMILES)
22.1,10.6,1.08,,"COc1c(C(N)=O)ccc2c1nc(-c1c(F)cc(Cl)cc1C(=O)O)n2CCn1c(-c2c(F)cc(Cl)cc2C(=O)O)nc2c(OC)c(C(N)=O)ccc21 [Example 11, 2,2′-(ethane-1,2-diylbis(5-carbamoyl-4-methoxy-1H-benzo[d]imidazole-1,2-diyl))bis(5-chloro-3-fluorobenzoic acid)]"
6.33,1.13,> 40,,"COc1c(C(N)=O)ccc2c1nc(-c1cc(C)ccc1C(=O)O)n2CCn1c(-c2cc(C)ccc2C(=O)O)nc2c(OC)c(C(N)=O)ccc21 [Example 26, 2,2′-(Ethane-1,2-diylbis(5-carbamoyl-4-methoxy-1H-benzo[d]imidazole-1,2-diyl))bis(4-methylbenzoic acid)]"
2.14,0.29,126,,"COc1c(C(N)=O)ccc2c1nc(-c1cnccc1C(=O)O)n2CCn1c(-c2cnccc2C(=O)O)nc2c(OC)c(C(N)=O)ccc21 [Example 30, 3,3′-(Ethane-1,2-diylbis(5-carbamoyl-4-methoxy-1H-benzo[d]imidazole-1,2-diyl))diisonicotinic acid]"
6.3,2.04,139,,"COc1c(C(N)=O)ccc2c1nc(-c1cc(Cl)ccc1-c1nn[nH]n1)n2CCn1c(-c2cc(Cl)ccc2-c2nn[nH]n2)nc2c(OC)c(C(N)=O)ccc21 [Example 42, 1,1′-(Ethane-1,2-diyl)bis(2-(5-chloro-2-(2H-tetrazol-5-yl)phenyl)-4-methoxy-1H-benzo[d]imidazole-5-carboxamide)]"
7.23,3.28,> 10,,"COc1c(C(N)=O)ccc2c1nc(-c1ccccc1C(=O)O)n2CCn1c(-c2ccccc2C(=O)O)nc2c(OC)c(C(N)=O)ccc21 [Example 4, 2,2′-(Ethane-1,2-diylbis(5-carbamoyl-4-methoxy-1H-benzo[d]imidazole-1,2-diyl))dibenzoic acid]"
6.04,1.33,30,,"NC(=O)c1ccc2c(c1)nc(-c1ccccc1-c1nn[nH]n1)n2CCn1c(-c2ccccc2-c2nnn[nH]2)nc2cc(C(N)=O)ccc21 [Example 5, 2-(2-(1H-Tetrazol-5-yl)phenyl)-1-(2-(2-(2-(2H-tetrazol-5-yl)phenyl)-5-carbamoyl-1H-benzo[d]imidazol-1-yl)ethyl)-1H-benzo[d]imidazole-5-carboxamide]"

# More lines, now with the values behind:
Structure (SMILES),ΔTm at 100 µM (human STING (HAQ)) [°C],ΔTm at 100 µM (human STING (WT) [1]) [°C],Kd (human STING (WT) [2]) [µM],DSF huSTING (WT) ΔTm (° C.) (human STING (WT) [1]) [°C]
"COc1c(C(N)=O)ccc2c1nc(-c1cccc(Cl)c1-c1nn[nH]n1)n2CCn1c(-c2cccc(Cl)c2-c2nn[nH]n2)nc2c(OC)c(C(N)=O)ccc21 [Example 40, 1,1′-(Ethane-1,2-diyl)bis(2-(3-chloro-2-(2H-tetrazol-5-yl)phenyl)-4-methoxy-1H-benzo[d]imidazole-5-carboxamide)]",-1.74,-7.45,180,
"COc1c(C(N)=O)ccc2c1nc(-c1c(F)cc(F)cc1-c1nn[nH]n1)n2CCn1c(-c2c(F)cc(F)cc2-c2nn[nH]n2)nc2c(OC)c(C(N)=O)ccc21 [Example 43, 1,1′-(Ethane-1,2-diyl)bis(2-(2,4-difluoro-6-(2H-tetrazol-5-yl)phenyl)-4-methoxy-1H-benzo[d]imidazole-5-carboxamide)]",22.2,9.87,1.79,
"NC(=O)c1ccc2c(c1)nc(-c1cc(Br)ccc1C(=O)O)n2CCn1c(-c2cc(Br)ccc2C(=O)O)nc2cc(C(N)=O)ccc21 [Example 3, 2,2′-(Ethane-1,2-diylbis(5-carbamoyl-1H-benzo[d]imidazole-1,2-diyl))bis(4-bromobenzoic acid)]",2.66,-0.02,700,
"COc1c(C(N)=O)ccc2c1nc(-c1c(F)cccc1-c1nn[nH]n1)n2CCn1c(-c2c(F)cccc2-c2nn[nH]n2)nc2c(OC)c(C(N)=O)ccc21 [Example 48, 1,1′-(Ethane-1,2-diyl)bis(2-(2-fluoro-6-(2H-tetrazol-5-yl)phenyl)-4-methoxy-1H-benzo[d]imidazole-5-carboxamide)]",25.5,11.8,0.512,
"COc1c(C(N)=O)ccc2c1nc(-c1ccc(C(F)(F)F)cc1C(=O)O)n2CCn1c(-c2ccc(C(F)(F)F)cc2C(=O)O)nc2c(OC)c(C(N)=O)ccc21 [Example 38, 6,6′-(Ethane-1,2-diylbis(5-carbamoyl-4-methoxy-1H-benzo[d]imidazole-1,2-diyl))bis(3-(trifluoromethyl)benzoic acid)]",3.68,0.38,> 100,
"COc1c(C(N)=O)ccc2c1nc(-c1ccc(Cl)c(Cl)c1-c1nn[nH]n1)n2CCn1c(-c2ccc(Cl)c(Cl)c2-c2nn[nH]n2)nc2c(OC)c(C(N)=O)ccc21 [Example 37, 1,1′-(Ethane-1,2-diyl)bis(2-(3,4-dichloro-2-(2H-tetrazol-5-yl)phenyl)-4-methoxy-1H-benzo[d]imidazole-5-carboxamide)]",2.8,-0.24,,
"NC(=O)c1ccc2c(c1)nc(-c1c(Br)cccc1C(=O)O)n2CCn1c(-c2c(Br)cccc2C(=O)O)nc2cc(C(N)=O)ccc21 (single isomer, unassigned) [Example 29.1, 2,2′-(Ethane-1,2-diylbis(5-carbamoyl-1H-benzo[d]imidazole-1,2-diyl))bis(3-bromobenzoic acid)]",,,33,−0.07
